As a reminder, the IC50 is the concentration at which inhibition is half-maximal.

Assay [1] deals with T1, Orexin/Hypocretin receptor type 1 (Homo sapiens, UniProt O43613).
T1 sequence (O43613 whole entry): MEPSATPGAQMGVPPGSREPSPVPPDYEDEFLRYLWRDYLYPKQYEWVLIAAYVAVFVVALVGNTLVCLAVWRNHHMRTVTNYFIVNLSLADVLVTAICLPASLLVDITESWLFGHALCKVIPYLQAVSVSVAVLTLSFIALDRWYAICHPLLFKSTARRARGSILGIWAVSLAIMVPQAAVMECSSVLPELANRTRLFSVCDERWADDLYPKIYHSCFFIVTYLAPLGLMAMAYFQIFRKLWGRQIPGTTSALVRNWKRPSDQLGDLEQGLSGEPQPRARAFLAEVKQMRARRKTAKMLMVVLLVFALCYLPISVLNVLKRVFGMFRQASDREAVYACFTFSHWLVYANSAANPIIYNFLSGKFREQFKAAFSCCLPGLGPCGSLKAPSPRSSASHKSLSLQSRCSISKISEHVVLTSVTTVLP
In words: Antagonist activity at human OX1R expressed in CHO cells assessed as inhibition of orexin A-induced intracellular Ca2+ release by FLIPR assay. Type of assay: functional, cell-based.

The target of the next assay is T2, Orexin receptor type 2 (Homo sapiens, UniProt O43614).
T2 sequence (O43614 whole entry): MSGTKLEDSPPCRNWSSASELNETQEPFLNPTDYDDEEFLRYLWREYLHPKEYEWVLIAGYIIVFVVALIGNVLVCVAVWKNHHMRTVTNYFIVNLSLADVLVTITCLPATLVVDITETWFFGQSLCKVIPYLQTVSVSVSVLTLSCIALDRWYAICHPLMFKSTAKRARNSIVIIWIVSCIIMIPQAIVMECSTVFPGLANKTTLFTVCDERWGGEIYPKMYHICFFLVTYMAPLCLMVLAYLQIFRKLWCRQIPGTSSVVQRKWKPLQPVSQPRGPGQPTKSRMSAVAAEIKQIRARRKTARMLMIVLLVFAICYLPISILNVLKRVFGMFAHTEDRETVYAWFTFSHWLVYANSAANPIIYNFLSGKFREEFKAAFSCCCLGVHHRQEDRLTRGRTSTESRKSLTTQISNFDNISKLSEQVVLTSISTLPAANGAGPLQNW
Briefly: Antagonist activity at human OX2R expressed in CHO cells assessed as inhibition of orexin A-induced intracellular Ca2+ release by FLIPR assay. Type of assay: functional, cell-based.

As to `CC[C@](C)(O)c1nc([C@@H]2CC[C@@H](C)N(C(=O)c3cscc3-n3nccn3)C2)oc1C`, the results for the IC50 (in assay [1]; on Orexin receptor type 2) were 9.77 µM and 0.018 µM, respectively.
Regarding `C[C@@H]1CC[C@@H](c2nc(CN(C)C)c(-c3ccccc3)o2)CN1C(=O)c1ccccc1-n1nccn1`, the IC50 at Orexin receptor type 2 came to 0.983 µM.
Turning to `CCOc1ccccc1C(=O)N1C[C@H](c2nc(C(C)(C)O)c(C)o2)CC[C@H]1C`, the IC50 at Orexin receptor type 2 came out at 0.012 µM.

Source of the values: ChEMBL document CHEMBL4715811, “Antagonists of Orexin Receptors as Potential Treatment of Sleep Disorders, Obesity, Eating Disorders, and Other Neurological and Psychiatric Disorders” (ACS Med Chem Lett, 2016).
